Inhibition data for 19 compounds are collected here from US7728028B2, “Substituted imidazoline compounds” (Gruenenthal GmbH, priority 2005, dated 2010).

The target of this experiment is T1, human μ-opiate receptor (Homo sapiens, UniProt P35372).
T1 construct: purchased PerkinElmer Life Sciences, Zaventem, Belgium RB-HOM; host or cells: CHO-K1 cells (recombinant expression; membrane preparation)
T1 sequence (P35372 whole entry): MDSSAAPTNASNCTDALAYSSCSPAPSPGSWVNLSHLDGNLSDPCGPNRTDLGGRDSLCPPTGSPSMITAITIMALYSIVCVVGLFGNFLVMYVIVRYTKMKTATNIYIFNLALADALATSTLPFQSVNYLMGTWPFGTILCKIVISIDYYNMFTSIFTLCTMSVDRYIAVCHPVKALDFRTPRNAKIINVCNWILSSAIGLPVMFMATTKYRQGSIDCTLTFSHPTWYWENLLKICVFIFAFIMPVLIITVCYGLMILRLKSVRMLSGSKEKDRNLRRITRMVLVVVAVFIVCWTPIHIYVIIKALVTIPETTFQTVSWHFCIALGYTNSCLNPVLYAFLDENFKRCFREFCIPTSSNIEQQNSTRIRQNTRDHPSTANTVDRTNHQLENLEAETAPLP
In words: Affinity for the human μ-opiate receptor ([3H]-naloxone displacement, SPA). As to conditions: Table 2, Examples 11-161; test substance 1 μmole/l; inhibition of specific [3H]-naloxone binding; CHO-K1 membranes; read-out: μ-Opioid receptor, % inhibition [1 μM]. In outline:
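CHO-K1 membranes expressing the receptor, incubated 90 min at room temperature with 1 nmol/l [3H]-naloxone and WGA-SPA beads in 50 mmol/l Tris-HCl with 0.06% BSA. Non-specific binding defined with 100 μmol/l naloxone. Value is % inhibition of specific binding at 1 μmol/l test substance.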
On to `COC(=O)C1(C)N=CN(Cc2ccccc2)C1CC1CCC(C(c2cccc(F)c2)N(C)C)CC1` (stereo not shown) [Example 140, 1-benzyl-5-{4-[dimethylamino-(3-fluorophenyl)-methyl]-cyclohexylmethyl}-4-methyl-4,5-dihydro-1H-imidazole-4-carboxylic acid methyl ester], for which the inhibition at 1 µM was 98%. With `CCCC1(C(=O)OC)N=CN(Cc2ccccc2)C1CC1CCC(C(c2ccc(F)cc2)N(C)C)CC1` (stereo not shown) [Example 141, 1-benzyl-5-{4-[dimethylamino-(4-fluorophenyl)-methyl]-cyclohexylmethyl}-4-propyl-4,5-dihydro-1H-imidazole-4-carboxylic acid methyl ester] the figure was 98%; with `COC(=O)C1(CCSC)N=CN(Cc2ccccc2)C1CC1CCC(C(c2ccc(F)cc2)N(C)C)CC1` (stereo not shown) [Example 142, 1-benzyl-5-{4-[dimethylamino-(4-fluorophenyl)-methyl]-cyclohexylmethyl}-4-(2-methylsulfanyl-ethyl)-4,5-dihydro-1H-imidazole-4-carboxylic acid methyl ester], 97%.

On to `COC(=O)C1(C)N=CN(Cc2ccccc2)C1CC1CCC(C(c2ccc(F)cc2)N(C)C)CC1` (stereo not shown) [Example 143, 1-benzyl-5-{4-[dimethylamino-(4-fluorophenyl)-methyl]-cyclohexylmethyl}-4-methyl-4,5-dihydro-1H-imidazole-4-carboxylic acid methyl ester], for which the inhibition at 1 µM is 100%.

In the case of `CCCC1(C(=O)OC)N=CN(Cc2ccccc2)C1CC1CCC(C(CCc2ccccc2)N(C)C)CC1` (stereo not shown) [Example 144, 1-benzyl-5-[4-(1-dimethylamino-3-phenylpropyl)-cyclohexylmethyl]-4-propyl-4,5-dihydro-1H-imidazole-4-carboxylic acid methyl ester], the inhibition at 1 µM was 90%.

Consider `COC(=O)C1(CCSC)N=CN(Cc2ccccc2)C1CC1CCC(C(CCc2ccccc2)N(C)C)CC1` (stereo not shown) [Example 145, 1-benzyl-5-[4-(1-dimethylamino-3-phenylpropyl)-cyclohexylmethyl]-4-(2-methylsulfanyl-ethyl)-4,5-dihydro-1H-imidazole-4-carboxylic acid methyl ester], for which the inhibition at 1 µM stood at 79%. For `COC(=O)C1(C)N=CN(Cc2ccccc2)C1CC1CCC(C(CCc2ccccc2)N(C)C)CC1` (stereo not shown) [Example 146, 1-benzyl-5-[4-(1-dimethylamino-3-phenylpropyl)-cyclohexylmethyl]-4-methyl-4,5-dihydro-1H-imidazole-4-carboxylic acid methyl ester] the value was 79%; for `COC(=O)CCC1(C(=O)OC)N=CN(C2CCCCC2)C1CC1CCC(C(c2cccc(F)c2)N(C)C)CC1` (stereo not shown) [Example 147, 1-cyclohexyl-5-{4-[dimethylamino-(3-fluorophenyl)-methyl]-cyclohexylmethyl}-4-(2-methoxycarbonylethyl)-4,5-dihydro-1H-imidazole-4-carboxylic acid methyl ester], 98%; for `CCC(C)C1(C(=O)OC)N=CN(C2CCCCC2)C1CC1CCC(C(c2cccc(F)c2)N(C)C)CC1` (stereo not shown) [Example 148, 4-sec-butyl-1-cyclohexyl-5-{4-[dimethylamino-(3-fluorophenyl)-methyl]-cyclohexylmethyl}-4,5-dihydro-1H-imidazole-4-carboxylic acid methyl ester], 95%.

`COC(=O)C1(CSC)N=CN(C2CCCCC2)C1CC1CCC(C(c2cccc(F)c2)N(C)C)CC1` (stereo not shown) [Example 149, 1-cyclohexyl-5-{4-[dimethylamino-(3-fluorophenyl)-methyl]-cyclohexylmethyl}-4-methylsulfanylmethyl-4,5-dihydro-1H-imidazole-4-carboxylic acid methyl ester]: the inhibition at 1 µM came to 99%. For `COC(=O)C1(CSCc2ccccc2)N=CN(C2CCCCC2)C1CC1CCC(C(c2cccc(F)c2)N(C)C)CC1` (stereo not shown) [Example 150, 4-benzylsulfanylmethyl-1-cyclohexyl-5-{4-[dimethylamino-(3-fluorophenyl)-methyl]-cyclohexylmethyl}-4,5-dihydro-1H-imidazole-4-carboxylic acid methyl ester] the value was 98%. For `COC(=O)CCC1(C(=O)OC)N=CN(C2CCCCC2)C1CC1CCC(C(c2ccc(F)cc2)N(C)C)CC1` (stereo not shown) [Example 151, 1-cyclohexyl-5-{4-[dimethylamino-(4-fluorophenyl)-methyl]-cyclohexylmethyl}-4-(2-methoxycarbonylethyl)-4,5-dihydro-1H-imidazole-4-carboxylic acid methyl ester] the value was 95%; for `CCC(C)C1(C(=O)OC)N=CN(C2CCCCC2)C1CC1CCC(C(c2ccc(F)cc2)N(C)C)CC1` (stereo not shown) [Example 152, 4-sec-butyl-1-cyclohexyl-5-{4-[dimethylamino-(4-fluorophenyl)-methyl]-cyclohexylmethyl}-4,5-dihydro-1H-imidazole-4-carboxylic acid methyl ester], 93%; for `COC(=O)C1(CSC)N=CN(C2CCCCC2)C1CC1CCC(C(c2ccc(F)cc2)N(C)C)CC1` (stereo not shown) [Example 153, 1-cyclohexyl-5-{4-[dimethylamino-(4-fluorophenyl)-methyl]-cyclohexylmethyl}-4-methylsulfanylmethyl-4,5-dihydro-1H-imidazole-4-carboxylic acid methyl ester], 93%. On to `COC(=O)CCC1(C(=O)OC)N=CN(C2CCCCC2)C1CC1CCC(C(CCc2ccccc2)N(C)C)CC1` (stereo not shown) [Example 154, 1-cyclohexyl-5-[4-(1-dimethylamino-3-phenylpropyl)-cyclohexylmethyl]-4-(2-methoxycarbonylethyl)-4,5-dihydro-1H-imidazole-4-carboxylic acid methyl ester], for which the inhibition at 1 µM came to 82%. With `COC(=O)C1(CSC)N=CN(C2CCCCC2)C1CC1CCC(C(CCc2ccccc2)N(C)C)CC1` (stereo not shown) [Example 155, 1-cyclohexyl-5-[4-(1-dimethylamino-3-phenylpropyl)-cyclohexylmethyl]-4-methylsulfanylmethyl-4,5-dihydro-1H-imidazole-4-carboxylic acid methyl ester] the figure was 86%.

On to `COC(=O)C1(CSCc2ccccc2)N=CN(C2CCCCC2)C1CC1CCC(C(CCc2ccccc2)N(C)C)CC1` (stereo not shown) [Example 156, 4-benzylsulfanylmethyl-1-cyclohexyl-5-[4-(1-dimethylamino-3-phenylpropyl)-cyclohexylmethyl]-4,5-dihydro-1H-imidazole-4-carboxylic acid methyl ester], for which the inhibition at 1 µM amounted to 92%. Take `CCCN1C=NC(CCC(=O)OC)(C(=O)OC)C1CC1CCC(C(c2cccc(F)c2)N(C)C)CC1` (stereo not shown) [Example 157, 5-{4-[dimethylamino-(3-fluorophenyl)-methyl]-cyclohexylmethyl}-4-(2-methoxycarbonylethyl)-1-propyl-4,5-dihydro-1H-imidazole-4-carboxylic acid methyl ester]: the inhibition at 1 µM was 91%. With `CCCN1C=NC(CSC)(C(=O)OC)C1CC1CCC(C(c2cccc(F)c2)N(C)C)CC1` (stereo not shown) [Example 158, 5-{4-[dimethylamino-(3-fluorophenyl)-methyl]-cyclohexylmethyl}-4-methylsulfanylmethyl-1-propyl-4,5-dihydro-1H-imidazole-4-carboxylic acid methyl ester] the figure was 95%.
